Laboratory results from patent US7307083B2, “Tetrahydro-acridine and dithiolane derivatives” (priority 2005, dated 2007).
Entries after “also recorded” stand apart in the source; their conditions may differ. Like-named read-outs stand apart in the source and are kept apart here. Marks after values point to notes of the source that are not given here. Square brackets hold non-standard residues; d marks the D form. Peptide text beside a SMILES is read from it. Sta = CC(C)C[C@H](N)[C@@H](O)CC(=O)O

How the values were obtained:
[1] = target: butyrylcholinesterase (BChE) from human serum (Homo sapiens, UniProt P06276); test: biochemical; format: biochemical
Chain of butyrylcholinesterase (BChE) from human serum (P06276 29-602): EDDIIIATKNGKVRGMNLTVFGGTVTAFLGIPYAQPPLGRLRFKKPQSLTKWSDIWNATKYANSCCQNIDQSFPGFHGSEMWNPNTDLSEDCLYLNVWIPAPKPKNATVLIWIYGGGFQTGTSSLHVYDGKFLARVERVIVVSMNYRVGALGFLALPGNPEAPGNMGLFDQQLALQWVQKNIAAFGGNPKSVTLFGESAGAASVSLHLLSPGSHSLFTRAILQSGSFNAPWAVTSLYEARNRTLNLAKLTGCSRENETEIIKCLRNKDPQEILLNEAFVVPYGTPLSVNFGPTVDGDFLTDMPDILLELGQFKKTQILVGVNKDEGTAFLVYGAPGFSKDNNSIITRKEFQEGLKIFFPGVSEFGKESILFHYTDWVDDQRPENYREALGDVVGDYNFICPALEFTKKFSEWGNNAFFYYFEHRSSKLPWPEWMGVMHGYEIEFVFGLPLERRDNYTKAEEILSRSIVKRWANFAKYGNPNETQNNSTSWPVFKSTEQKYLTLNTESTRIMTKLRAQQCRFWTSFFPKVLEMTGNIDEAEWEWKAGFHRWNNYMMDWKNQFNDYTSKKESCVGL

[2] = target: human recombinant acetylcholinesterase (AChE or HuAChE) (Homo sapiens, UniProt P22303); test: biochemical; format: biochemical
Chain of human recombinant acetylcholinesterase (AChE or HuAChE) (P22303 32-614): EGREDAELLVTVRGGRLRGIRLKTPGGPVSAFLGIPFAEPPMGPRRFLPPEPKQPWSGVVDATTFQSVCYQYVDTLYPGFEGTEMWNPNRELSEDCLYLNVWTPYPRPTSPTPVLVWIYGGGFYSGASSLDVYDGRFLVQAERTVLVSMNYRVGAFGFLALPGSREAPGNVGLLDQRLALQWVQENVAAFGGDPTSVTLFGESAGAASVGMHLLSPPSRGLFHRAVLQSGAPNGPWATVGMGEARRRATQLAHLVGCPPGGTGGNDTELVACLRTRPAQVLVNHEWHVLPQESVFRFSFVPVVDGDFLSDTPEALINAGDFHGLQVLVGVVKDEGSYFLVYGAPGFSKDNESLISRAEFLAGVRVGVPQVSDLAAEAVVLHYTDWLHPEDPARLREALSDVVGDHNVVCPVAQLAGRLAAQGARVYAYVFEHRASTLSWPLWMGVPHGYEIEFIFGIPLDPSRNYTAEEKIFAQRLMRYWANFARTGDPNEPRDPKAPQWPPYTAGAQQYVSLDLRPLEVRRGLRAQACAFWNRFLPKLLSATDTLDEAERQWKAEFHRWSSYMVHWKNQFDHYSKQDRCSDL

anti-NGF mice (AD11) = test: Cholinergic deficit of anti-NGF mice: ChAT immunohistochemistry, cholinergic neurones in the basal forebrain; settings: i.p., 15 days, doses of Table 6
Protocol: Immunohistochemistry was carried out to show the number of cholinergic neurones in the basal forebrain. For this purpose, sections were incubated with the monoclonal antibody anticholine acetyltransferase (1:500, Chemicon International Inc., Temecula, Calif.).

[3] = target: T1, AChE-induced Aβ40 aggregation (Homo sapiens, UniProt P22303); test: biochemical; settings: for inhibition at 100 µM: read-out: % of inhibition ± SEM of AChE-induced Aβ40 aggregation
T1 sequence (P22303 32-614): as above

BACE1 (β-secretase) = target: T2, BACE1 (β-secretase) (Homo sapiens, UniProt P56817); test: biochemical
T2 construct: host or cells: Baculovirus expression system
T2 sequence (P56817 46-501): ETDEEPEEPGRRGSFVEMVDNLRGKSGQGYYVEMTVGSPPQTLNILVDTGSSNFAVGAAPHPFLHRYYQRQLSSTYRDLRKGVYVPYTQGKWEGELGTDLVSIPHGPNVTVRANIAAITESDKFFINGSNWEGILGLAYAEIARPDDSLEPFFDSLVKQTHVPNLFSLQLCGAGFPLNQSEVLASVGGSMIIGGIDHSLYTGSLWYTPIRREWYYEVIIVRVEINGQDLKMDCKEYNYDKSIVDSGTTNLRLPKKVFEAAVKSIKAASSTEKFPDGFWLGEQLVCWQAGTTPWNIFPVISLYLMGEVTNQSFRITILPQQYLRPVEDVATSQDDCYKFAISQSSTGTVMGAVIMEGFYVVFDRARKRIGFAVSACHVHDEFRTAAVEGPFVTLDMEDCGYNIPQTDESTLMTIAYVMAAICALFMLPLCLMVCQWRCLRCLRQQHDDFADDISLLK
Protocol: Assay for the analysis of BACE activity
BACE1 (β-secretase) purified and expressed in Baculovirus in 50 mM Tris HCl (pH=7.5), 10% glycerol (5 Units)
Assay buffer: 50 mM Sodium Acetate, pH=4.5
20 μL of substrate were added to 20 μL of the compound to be tested (or to the buffer if preparing the control well)
To start the reaction, 20 μL of BACE1 enzyme were added to the well.
The mixture was incubated at 37° C. for 60 minutes.
20 μL of the solution were added to stop the reaction. Then the fluorescence signal was read.
BACE activity was measured with a fluorimetric analysis method using a multi-well spectrofluorimeter. The peptide substrate of the analysis mimes the APP protein which is the natural substrate of BACE.
The inhibition curves were obtained for each compound by plotting on a graph the inhibition percentages obtained with respect to the logarithm of the inhibitor concentration. The linear regression parameters were determined and, when possible, the value of IC50 was extrapolated (GraphPad Prism 3.0 GraphPad Software Inc.).
The value of IC50 was calculated using GraphPad Prism software.

SH-SY5Y cells [4] = test: Intracellular antioxidant activity: ROS formation evoked by t-BuOOH (DCFH-DA probe); format: cell-based, human; settings: for % intracellular ROS: percentage increase of ROS by t-BuOOH, mean±SD of three tests; for effect on ROS formation, in words: 0.1-50 μM for LA and 7, 0.1-5 μM for 15
Protocol: Significant inhibiting effects were obtained with concentrations of 7 or 5 μM (p<0.01), 10 μM and 50 μM (for both p<0.001).
The results are expressed as the percentage increase of intracellular ROS determined by the treatment with tert-butyl hydroperoxide. Data are reported as the mean±SD (standard deviation) of three tests independent of one another (treated against not treated; *p<0.01, **p<0.001). ^btox=cytotoxicity.

[5] = target: T1, AChE-induced Aβ40 aggregation
SH-SY5Y cells [6] = test: Toxic effects, colorimetric MTT assay; format: cell-based; settings: 24 hours; for effect on cellular viability (MTT): 0.1-50 μM
Protocol: The results are expressed as a percentage of cells with respect to the control.
The cellular viability was expressed as a percentage of control cells and calculated by the formula Ft/Fnt×100, where Ft=absorbance of treated neurones and Fnt=absorbance of non treated neurones.
The SH-SY5Y cells were routinely grown at 37° C. in a humidified incubator with 5% CO2 in Dulbecco's modified Eagle's medium supplemented with 10% foetal calf serum (FCS), glutamine 2 mM, penicillin […] and streptomycin 50 μg/mL.

human recombinant AChE = human recombinant AChE (Homo sapiens, UniProt P22303); test: Action mechanism and inhibition constant Ki (Lineweaver-Burk method); format: biochemical
Chain of human recombinant AChE (P22303 32-614): as the sequence (P22303 32-614) above
Excerpt: Determination of the action mechanism and of the inhibition constant (Ki). […] To obtain an estimate of the competitive inhibition constant Ki, the Lineweaver-Burk method was used. […] The data obtained were plotted on a graph according to the Lineweaver-Burk method, that is indicating the reciprocal of the enzymatic velocity (1/v) as a function of the reciprocal of the substrate concentration (1/[ACTh)].

[7] = BChE from human serum, mean of two independent measurements, each in duplicate, read-out: IC50 BChE
[8] = human recombinant AChE, mean of two independent measurements, each in duplicate, read-out: IC50 AChE

COc1cccc(C(C)N(C)CCCNC(=O)CCCCC2CCSS2)c1 (stereo not shown) [Compound 20, 5-[1,2]dithiolan-3-yl-pentanoic acid (3-{[1-(3-methoxy-phenyl)-ethyl]-methyl-amino}-propyl)-amide]
IC50 [1, 7]: 398 nM
IC50 [2, 8]: 74100 nM
recovery of the cholinergic deficit (number of cholinergic neurones in the basal forebrain) (anti-NGF mice (AD11)): did not allow the complete recovery of the cholinergic deficit
inhibition at 100 µM [3]: 15.6 ± 7.8%

O=C(CCCCC1CCSS1)NCCCCCCNc1c2c(nc3ccccc13)CCCC2 (stereo not shown) [Compound 5, 5-[1,2]dithiolan-3-yl-pentanoic acid [6-(1,2,3,4-tetrahydro-acridin-9-ylamino)-hexyl]-amide]
IC50 [1, 7]: 3.24 nM
IC50 [2, 8]: 30.1 nM

O=C(CCCCC1CCSS1)NCCCNc1c2c(nc3ccccc13)CCCC2 (stereo not shown) [Compound 2, 5-[1,2]dithiolan-3-yl-pentanoic acid [3-(1,2,3,4-tetrahydro-acridin-9-ylamino)propyl]amide]
IC50 [1, 7]: 12 nM
IC50 [2, 8]: 6.96 nM

CC[C@H](C)[C@H](NC(=O)[C@H](CCC(=O)O)NC(=O)[C@H](CCC(=O)O)NC(=O)[C@@H](NC(=O)[C@@H](N)CCCCN)[C@@H](C)O)C(=O)N[C@@H](CO)C(=O)N[C@@H](CCC(=O)O)C(=O)N[C@H](C(=O)N[C@@H](CC(N)=O)C(=O)N[C@@H](CC(C)C)[C@@H](O)CC(=O)N[C@H](C(=O)N[C@@H](C)C(=O)N[C@@H](CCC(=O)O)C(=O)N[C@@H](Cc1ccccc1)C(=O)O)C(C)C)C(C)C [peptide derivative of statin] (H-KTEEISEVN[Sta]VAEF-OH)
IC50 (BACE1 (β-secretase)): 18 nM

COc1ccc2c3c1O[C@H]1C[C@@H](O)C=C[C@@]31CCN(C)C2 [Galantamine]
IC50 (BACE1 (β-secretase)): > 5000 nM

O=C(CCCCC1CCSS1)NCCCNc1c2c(nc3cc(Cl)ccc13)CCCC2 (racemic) [Compound 7, 5-[1,2]dithiolan-3-yl-pentanoic acid [3-(6-chloro-1,2,3,4-tetrahydro-acridin-9-ylamino)-propyl]-amide]
% intracellular ROS (SH-SY5Y cells [4]; 0.1 μM): 99.50 ± 3.54%
% intracellular ROS (SH-SY5Y cells [4]; 0.5 μM): 99.67 ± 7.02%
% intracellular ROS (SH-SY5Y cells [4]; 1 μM): 96.67 ± 8.02%
% intracellular ROS (SH-SY5Y cells [4]; 5 μM): 82.50 ± 7.78%
% intracellular ROS (SH-SY5Y cells [4]; 10 μM): tox^b
% intracellular ROS (SH-SY5Y cells [4]; 50 μM): tox^b
effect on ROS formation, in words (SH-SY5Y cells [4]): inhibiting effect in ROS formation which depended strongly on the concentration
inhibition of ROS formation (SH-SY5Y cells [4]; SH-SY5Y, t-BuOOH): 64%
power versus other classic AChE inhibitors approved for AD (AChE-induced Aβ40 aggregation) [5]: significantly more powerful than other classic AChE inhibitors
times less powerful than propidium (AChE-induced Aβ40 aggregation) [5]: 3
IC50 [1, 7]: 10.8 nM
IC50 [2]: 0.253 nM
effect on cellular viability (MTT) (SH-SY5Y cells [6]): did not lead to variations in cellular viability; also recorded: do not influence cellular vitality
recovery of the cholinergic deficit (number of cholinergic neurones in the basal forebrain) (anti-NGF mice (AD11)): did not allow the complete recovery of the cholinergic deficit
IC50 [3]: 45000 ± 14600 nM
inhibition at 100 µM [3]: 61.8 ± 0.8%
Ki (human recombinant AChE): 0.155 ± 0.046 nM
type of inhibition (Lineweaver-Burk) (human recombinant AChE): mixed type of competitive inhibition
IC50 (BACE1 (β-secretase); substrate 250 nM, enzyme 1 U/mL, 60 minutes, 37° C., read-out: IC50 (nM) on BACE): 69.7 nM

O=C(CCCCC1CCSS1)NCCCCNc1c2c(nc3ccccc13)CCCC2 (stereo not shown) [Compound 3, 5-[1,2]dithiolan-3-yl-pentanoic acid [4-(1,2,3,4-tetrahydro-acridin-9-ylamino)-butyl]amide]
IC50 ([1]; read-out: IC50 BChE): 5.04 nM
IC50 [2, 8]: 35.2 nM

NCCCNc1c2c(nc3cc(Cl)ccc13)CCCC2 [Compound 15, N^1-(6-chloro-1,2,3,4-tetrahydro-acridin-9-yl)-propane-1,3-diamine]
% intracellular ROS (SH-SY5Y cells [4]; 0.1 μM): 88.75 ± 8.41%
% intracellular ROS (SH-SY5Y cells [4]; 0.5 μM): 95.00 ± 5.20%
% intracellular ROS (SH-SY5Y cells [4]; 1 μM): 77.00 ± 8.76%
% intracellular ROS (SH-SY5Y cells [4]; 5 μM): 61.67 ± 9.02* %
% intracellular ROS (SH-SY5Y cells [4]; 10 μM): 51.25 ± 9.21** %
% intracellular ROS (SH-SY5Y cells [4]; 50 μM): 30.50 ± 9.04** %
effect on ROS formation, in words (SH-SY5Y cells [4]): did not show any difference as regards ROS formation
IC50 ([2]; read-out: IC50 AChE): 21.5 nM
decrease of cellular viability (SH-SY5Y cells [6]; 10 μM): 88%
decrease of cellular viability (SH-SY5Y cells [6]; 50 μM): 99%
effect on cellular viability (MTT) (SH-SY5Y cells [6]): has a neurotoxic effect
inhibition at 100 µM [3]: 25 ± 5%

O=C(CCCCC1CCSS1)NCCCCCCCNc1c2c(nc3ccccc13)CCCC2 (stereo not shown) [Compound 6, 5-[1,2]dithiolan-3-yl-pentanoic acid [7-(1,2,3,4-tetrahydro-acridin-9-ylamino)-heptyll]-amide]
IC50 [1, 7]: 8.58 nM

CCN(CCCCCCNC(=O)CCCCC1CCSS1)Cc1ccccc1OC (stereo not shown) [Compound 18, 5-[1,2]dithiolan-3-yl-pentanoic acid {6-[Ethyl-(2-methoxy-benzyl)-amino]-hexyl}-amide]
IC50 [1, 7]: 2490 nM
IC50 [2, 8]: 256 nM
recovery of the cholinergic deficit (number of cholinergic neurones in the basal forebrain) (anti-NGF mice (AD11)): significant recovery
inhibition at 100 µM [3]: 16.8 ± 2.2%

O=C(O)CCCCC1CCSS1 (stereo not shown) [LA, lipoic acid, reference compound]
% of inhibition ± SEM of AChE-induced Aβ40 aggregation ([5]; compound 100 μM): <5%
recovery of the cholinergic deficit (number of cholinergic neurones in the basal forebrain) (anti-NGF mice (AD11)): did not allow the complete recovery of the cholinergic deficit

CCN(C)C(=O)Oc1cccc([C@H](C)N(C)C)c1 [Rivastigmine]
IC50 (BACE1 (β-secretase)): > 3000 nM

Nc1c2c(nc3cc(Cl)ccc13)CC(CNC(=O)CCCCC1CCSS1)CC2 (stereo not shown) [Compound 8, 5-[1,2]dithiolan-3-yl-pentanoic acid (9-Amino-6-chloro-1,2,3,4-tetrahydro-acridin-3-ylmethyl)-amide]
IC50 [2, 8]: 232 nM

O=C(CCCC[C@@H]1CCSS1)NCCCNc1c2c(nc3cc(Cl)ccc13)CCCC2 [Compound 24]
power versus other classic AChE inhibitors approved for AD (AChE-induced Aβ40 aggregation) [5]: significantly more powerful than other classic AChE inhibitors
IC50 [2]: 0.23 nM
inhibition at 100 µM [3]: 68 ± 3%

O=C(CCCCc1cccs1)NCCCNc1c2c(nc3cc(Cl)ccc13)CCCC2 [Compound 21, 5-thiofen-2-yl-pentanoic acid [3-(6-chloro-1,2,3,4-tetrahydro-acridin-9-ylamino)-propyl]-amide]
IC50 [1, 7]: 30.6 nM
IC50 [2]: 2.66 nM
inhibition at 100 µM [3]: 24.1 ± 5.7%

O=C(CCCCC1CCSS1)NCCCCCNc1c2c(nc3ccccc13)CCCC2 (stereo not shown) [Compound 4, 5-[1,2]dithiolan-3-yl-pentanoic acid [5-(1,2,3,4-tetrahydro-acridin-9-ylamino)-pentyl]-amide]
IC50 ([1]; read-out: IC50 BChE): 1.48 nM
IC50 [2, 8]: 38.4 nM

COc1cc2nc(Cl)nc(NCCCNC(=O)CCCCC3CCSS3)c2cc1OC (stereo not shown) [Compound 23, 5-[1,2]dithiolan-3-yl-pentanoic acid [3-(2-chloro-6,7-dimethoxy-chinazoline-4-ylamino)-propyl]-amide]
IC50 [2]: 192000 nM
inhibition at 100 µM [3]: 32.1 ± 3.9%

Nc1c2c(nc3ccccc13)CCCC2 [Tacrine, reference compound]
recovery of the cholinergic deficit (number of cholinergic neurones in the basal forebrain) (anti-NGF mice (AD11)): did not allow the complete recovery of the cholinergic deficit
IC50 (BACE1 (β-secretase)): > 4000 nM

CC(c1cccc(OCCCNC(=O)CCCCC2CCSS2)c1)N(C)C (stereo not shown) [Compound 19, 5-[1,2]dithiolan-3-yl-pentanoic acid {3-[3-(1-dimethylamino-ethyl)-phenoxy]-propyl}-amide]
IC50 [1]: 82400 nM
IC50 [2, 8]: 25200 nM
recovery of the cholinergic deficit (number of cholinergic neurones in the basal forebrain) (anti-NGF mice (AD11)): did not allow the complete recovery of the cholinergic deficit
inhibition at 100 µM [3]: 9 ± 6.6%

O=C(CCCCC1CCSS1)NCCNc1c2c(nc3ccccc13)CCCC2 (stereo not shown) [Compound 1, 5-[1,2]dithiolan-3-yl-pentanoic acid [2-(1,2,3,4-tetrahydro-acridin-9-ylamino)-ethyl]amide]
IC50 [1, 7]: 47.5 nM
IC50 [2, 8]: 97 nM
